Results as given in PubChem BioAssay AID330 (DTP/NCI, 2004).
Values joined by “and” are separate entries in the source; they are usually repeats but may differ in a detail not shown here. Identical values can stand only once. Toxic doses and inconclusive results are not listed.

Test system: P388 leukemia ip, CD2F1 mice, survival T/C
Assay: NCI In Vivo Anticancer Drug Screen. Data for tumor model P388 Leukemia (intraperitoneal) in CD2F1 (CDF1) mice
Conditions: endpoint: median survival time, higher = longer survival
How it was run: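 Mice carrying the transplanted tumor received test compound or vehicle. Survival was recorded in each group, and the value is the treated-group measurement divided by that of the vehicle-treated control group.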

[1] = dose: 50.0 mg/kg/injection, schedule: Q01DX005 (ip), vehicle: saline
[2] = dose: 100.0 mg/kg/injection, schedule: Q01DX005 (ip), vehicle: saline
[3] = dose: 200.0 mg/kg/injection, schedule: Q01DX005 (ip), vehicle: saline
[4] = dose: 60.0 mg/kg/injection, schedule: Q01DX005 (ip), vehicle: saline with Tween-80
[5] = dose: 120.0 mg/kg/injection, schedule: Q01DX005 (ip), vehicle: saline with Tween-80
[6] = dose: 240.0 mg/kg/injection, schedule: Q01DX005 (ip), vehicle: saline with Tween-80
[7] = dose: 50.0 mg/kg/injection, schedule: Q01DX005 (ip), vehicle: saline with Tween-80
[8] = dose: 100.0 mg/kg/injection, schedule: Q01DX005 (ip), vehicle: saline with Tween-80
[9] = dose: 200.0 mg/kg/injection, schedule: Q01DX005 (ip), vehicle: saline with Tween-80
[10] = dose: 6.25 mg/kg/injection, schedule: Q01DX009 (ip), vehicle: saline with Tween-80
[11] = dose: 12.5 mg/kg/injection, schedule: Q01DX009 (ip), vehicle: saline with Tween-80
[12] = dose: 25.0 mg/kg/injection, schedule: Q01DX009 (ip), vehicle: saline with Tween-80
[13] = dose: 50.0 mg/kg/injection, schedule: Q01DX009 (ip), vehicle: saline with Tween-80
[14] = dose: 100.0 mg/kg/injection, schedule: Q01DX009 (ip), vehicle: saline with Tween-80
[15] = dose: 200.0 mg/kg/injection, schedule: Q01DX009 (ip), vehicle: saline with Tween-80
[16] = dose: 50.0 mg/kg/injection, schedule: Q01DX005 (ip), vehicle: Klucel (hydroxypropylcellulose) (HPC)
[17] = dose: 100.0 mg/kg/injection, schedule: Q01DX005 (ip), vehicle: Klucel (hydroxypropylcellulose) (HPC)
[18] = dose: 100.0 mg/kg/injection, schedule: Q01DX001 (ip), vehicle: Klucel (hydroxypropylcellulose) (HPC)
[19] = dose: 200.0 mg/kg/injection, schedule: Q01DX001 (ip), vehicle: Klucel (hydroxypropylcellulose) (HPC)
[20] = dose: 400.0 mg/kg/injection, schedule: Q01DX001 (ip), vehicle: Klucel (hydroxypropylcellulose) (HPC)
[21] = dose: 12.5 mg/kg/injection, schedule: Q01DX009 (ip), vehicle: saline
[22] = dose: 25.0 mg/kg/injection, schedule: Q01DX009 (ip), vehicle: saline
[23] = dose: 50.0 mg/kg/injection, schedule: Q01DX009 (ip), vehicle: saline
[24] = dose: 100.0 mg/kg/injection, schedule: Q01DX009 (ip), vehicle: saline

For `O=C1NC2(CCCC2)C(=O)N1CCCN(CCCl)CCCl`, the T/C (dose: 1.5 mg/kg/injection, schedule: Q01DX005 (ip), vehicle: saline) was 173 % of control, the T/C (dose: 3.0 mg/kg/injection, schedule: Q01DX005 (ip), vehicle: saline) was 176 % of control and 185 % of control and the T/C (dose: 6.0 mg/kg/injection, schedule: Q01DX005 (ip), vehicle: saline) was 179 % of control and 204 % of control. The T/C (dose: 12.0 mg/kg/injection, schedule: Q01DX005 (ip), vehicle: saline) was 203 % of control and 288 % of control.
`CCN(CC)CCCNc1nccc2ccc(OC)cc12` was tested, and the T/C [1] was 99 % of control, the T/C [2] was 99 % of control and the T/C [3] was 97 % of control.
With `O=C(CCCCC(=O)N1CCOCC1)N1CCOCC1` the T/C [1] was 100 % of control, the T/C [2] was 101 % of control and the T/C [3] was 101 % of control.
`C=C1C(=O)OC2C1C(OC(=O)/C(C)=C/C)CC1(C)OC1C1OC1C1(CO1)C2O` (stereo not drawn) was tested, and the T/C (dose: 5.0 mg/kg/injection, schedule: Q01DX005 (ip), vehicle: Klucel (hydroxypropylcellulose) (HPC)) was 106 % of control, the T/C (dose: 10.0 mg/kg/injection, schedule: Q01DX005 (ip), vehicle: Klucel (hydroxypropylcellulose) (HPC)) was 97 % of control and the T/C (dose: 20.0 mg/kg/injection, schedule: Q01DX005 (ip), vehicle: Klucel (hydroxypropylcellulose) (HPC)) was 95 % of control. The T/C (dose: 40.0 mg/kg/injection, schedule: Q01DX005 (ip), vehicle: Klucel (hydroxypropylcellulose) (HPC)) was 104 % of control and the T/C (dose: 80.0 mg/kg/injection, schedule: Q01DX005 (ip), vehicle: Klucel (hydroxypropylcellulose) (HPC)) was 116 % of control.
With `O=S1CCCS(=O)C1c1ccccc1` (stereo not drawn) the T/C [4] was 100 % of control, the T/C [5] was 91 % of control and the T/C [6] was 97 % of control.
In the case of `COC(=O)[C@H]1[C@H]2C[C@@H]3c4[nH]c5cc(OC)ccc5c4CCN3C[C@H]2C[C@@H](OC(=O)c2ccc(N)cc2)[C@@H]1OC`, the T/C [7] is reported as 97 % of control, the T/C [8] is reported as 87 % of control and the T/C [9] is reported as 94 % of control.
For `CCN(CC)CCN1C(=O)c2cccc(N)c2C1=O`, the T/C [1] was 103 % of control and the T/C [2] was 101 % of control.
In the case of `COc1ccc2c(c1)CCc1c-2nc(N)nc1-c1nc(N)nc2c1CCc1cc(OC)ccc1-2`, the T/C [4] is reported as 100 % of control, the T/C [5] is reported as 100 % of control and the T/C [6] is reported as 100 % of control.
In the case of `O=S(=O)(C(Br)CBr)C(Br)CBr` (stereo not drawn), the T/C [10] is reported as 113 % of control, the T/C [11] is reported as 118 % of control and the T/C [12] is reported as 122 % of control.
For `O=[N+]([O-])c1ccc(O)cc1C=NCCSc1ccc(Cl)cc1`, the T/C [13] was 100 % of control, the T/C [14] was 100 % of control and the T/C [15] was 103 % of control.
With `COC1/C=C/OC2(C)Oc3c(C)c(O)c4c(O)c(c(/C=N/N(C)c5nc6c(N)ncnc6n5C5OC(CO)C(O)C5O)c(O)c4c3C2=O)NC(=O)C(C)=C/C=C/C(C)C(O)C(C)C(O)C(C)C(OC(C)=O)C1C` (stereo not drawn) the T/C [13] was 101 % of control, the T/C [14] was 97 % of control and the T/C [15] was 101 % of control.
`Cc1ccc(NC(=O)N2CC(C)OC(C)C2)cc1[N+](=O)[O-]` (stereo not drawn) was tested, and the T/C [16] was 103 % of control, the T/C [17] was 99 % of control and the T/C (dose: 200.0 mg/kg/injection, schedule: Q01DX005 (ip), vehicle: Klucel (hydroxypropylcellulose) (HPC)) was 94 % of control.
For `OCNC(=S)c1ccccc1`, the T/C [7] was 105 % of control and the T/C [8] was 105 % of control.
In the case of `O=C1CCC(=O)N1CNCCc1cc(Cl)cc(Cl)c1O`, the T/C [13] is reported as 102 % of control, the T/C [14] is reported as 103 % of control and the T/C [15] is reported as 94 % of control.
In the case of `Nc1c(Cl)cc(Cl)c(-c2c(Cl)cc(Cl)c([N+](=O)[O-])c2Cl)c1Cl`, the T/C (dose: 50.0 mg/kg/injection, schedule: Q01DX009 (ip), vehicle: Klucel (hydroxypropylcellulose) (HPC)) is reported as 103 % of control, the T/C (dose: 100.0 mg/kg/injection, schedule: Q01DX009 (ip), vehicle: Klucel (hydroxypropylcellulose) (HPC)) is reported as 93 % of control and the T/C (dose: 200.0 mg/kg/injection, schedule: Q01DX009 (ip), vehicle: Klucel (hydroxypropylcellulose) (HPC)) is reported as 100 % of control.
For `Cc1ccc(CCNC(=O)c2c3nc4c(C(=O)NCCc5ccc(C)cc5)ccc(C)c4oc-3c(C)c(=O)c2N)cc1`, the T/C (dose: 25.0 mg/kg/injection, schedule: Q04DX003 (ip), vehicle: DMSO) was 98 % of control, the T/C (dose: 50.0 mg/kg/injection, schedule: Q04DX003 (ip), vehicle: DMSO) was 99 % of control and the T/C (dose: 100.0 mg/kg/injection, schedule: Q04DX003 (ip), vehicle: DMSO) was 91 % of control.
With `CC1=CC(=Nc2ccc(N(C)C)cc2)C=CC1=O` the T/C (dose: 3.13 mg/kg/injection, schedule: Q01DX009 (ip), vehicle: saline with Tween-80) was 104 % of control and 115 % of control, the T/C [10] was 107 % of control and 115 % of control and the T/C [11] was 111 % of control and 114 % of control.
In the case of `CC(=O)Nc1nc(N)nc2c1CC(N(Cc1ccc(Cl)cc1)C(C)=O)CC2` (stereo not drawn), the T/C [13] is reported as 108 % of control, the T/C [14] is reported as 119 % of control and the T/C [15] is reported as 154 % of control.
`O=C1CN(CCCN2CCOCC2)CC(=O)N2CCCCN12` was tested, and the T/C [1] was 100 % of control, the T/C [2] was 105 % of control and the T/C [3] was 102 % of control.
With `CCOC(=O)NC(Cc1cc(OC)c(OC)cc1Br)c1ccc(OC)c(OC)c1` (stereo not drawn) the T/C [7] was 89 % of control, the T/C [8] was 89 % of control and the T/C [9] was 100 % of control.
`c1nc(SSc2ncnc3nc[nH]c23)c2[nH]cnc2n1` was tested, and the T/C [11] was 113 % of control, the T/C [12] was 118 % of control and the T/C [13] was 100 % of control.
In the case of `CCCCn1c2c(c3ccccc3c1=O)C(=O)c1ccccc1-2`, the T/C [7] is reported as 92 % of control, the T/C [8] is reported as 91 % of control and the T/C [9] is reported as 88 % of control.
With `COc1ccc(/C=C2\C=CC(=O)O2)cc1` the T/C (dose: 100.0 mg/kg/injection, schedule: Q01DX002 (ip), vehicle: Klucel (hydroxypropylcellulose) (HPC)) was 104 % of control, the T/C (dose: 200.0 mg/kg/injection, schedule: Q01DX002 (ip), vehicle: Klucel (hydroxypropylcellulose) (HPC)) was 103 % of control and the T/C (dose: 400.0 mg/kg/injection, schedule: Q01DX002 (ip), vehicle: Klucel (hydroxypropylcellulose) (HPC)) was 105 % of control.
With `CC(=O)NNc1cccc(Cl)n1` the T/C [18] was 98 % of control, the T/C [19] was 96 % of control and the T/C [20] was 97 % of control.
For `CC(=O)c1cc2c(cc1Br)OCO2`, the T/C [18] was 100 % of control, the T/C [19] was 102 % of control and the T/C [20] was 108 % of control.
With `Cc1cccc(C(=O)CCN(C)C)c1` the T/C [21] was 94 % of control, the T/C [22] was 99 % of control and the T/C [23] was 100 % of control and 101 % of control and 108 % of control. For the same compound, the T/C [24] was 98 % of control.
For `CCCCCCCCCCCCCCCCN(CC)CC`, the T/C (dose: 2.5 mg/kg/injection, schedule: Q01DX009 (ip), vehicle: saline) was 105 % of control, the T/C (dose: 5.0 mg/kg/injection, schedule: Q01DX009 (ip), vehicle: saline) was 108 % of control and the T/C (dose: 10.0 mg/kg/injection, schedule: Q01DX009 (ip), vehicle: saline) was 103 % of control.
For `CS1=C2C(=O)CCCC2=Nc2ccccc21` (stereo not drawn), the T/C [1] was 97 % of control and the T/C [2] was 100 % of control.
With `O=C(Nc1ccc(NC(=O)C(Cl)(Cl)Cl)cc1)C(Cl)(Cl)Cl` the T/C [12] was 105 % of control, the T/C [13] was 91 % of control and the T/C [14] was 92 % of control. The T/C [15] was 99 % of control.
For `O=C(NC(Cc1c[nH]c2ccccc12)C(=O)O)OCC1c2ccccc2-c2ccccc21` (stereo not drawn), the T/C [16] was 100 % of control and the T/C [17] was 95 % of control.
With `CN(C)CCCC1(O)c2ccccc2CCc2ccccc21` the T/C [21] was 103 % of control, the T/C [22] was 108 % of control and the T/C [23] was 101 % of control and 119 % of control. The T/C [24] was 94 % of control.
In the case of `COC(=O)c1ccc2c(c1)C(NC(C)=O)CCc1cc(OC)c(OC)c(OC)c1-2` (stereo not drawn), the T/C (dose: 0.25 mg/kg/injection, schedule: Q01DX005 (ip), vehicle: saline) is reported as 106 % of control, the T/C (dose: 0.5 mg/kg/injection, schedule: Q01DX005 (ip), vehicle: saline) is reported as 99 % of control and the T/C (dose: 1.0 mg/kg/injection, schedule: Q01DX005 (ip), vehicle: saline) is reported as 101 % of control. For the same compound, the T/C (dose: 2.0 mg/kg/injection, schedule: Q01DX005 (ip), vehicle: saline) was 106 % of control and the T/C (dose: 4.0 mg/kg/injection, schedule: Q01DX005 (ip), vehicle: saline) was 114 % of control.
For `C=CC[P+](Cc1ccccc1)(c1ccccc1)c1ccccc1`, the T/C (dose: 0.78 mg/kg/injection, schedule: Q01DX009 (ip), vehicle: saline) was 107 % of control, the T/C (dose: 1.56 mg/kg/injection, schedule: Q01DX009 (ip), vehicle: saline) was 103 % of control and the T/C (dose: 3.13 mg/kg/injection, schedule: Q01DX009 (ip), vehicle: saline) was 96 % of control.
